Reference: patent publication EP4230620A1, “SUBSTITUTED N-AMINO-N-BENZOIC ACID URACILS, THEIR SALTS AND USE OF SAID COMPOUNDS AS HERBICIDAL AGENTS” (Bayer Aktiengesellschaft, priority 2022, dated 2023)

Tests used:
Type in all cases: in vivo
Abutilon theophrasti = assay: Post-emergence herbicidal action in greenhouse against ABUTH; conditions: post-emergence spray, 600 l/ha water, visual rating after ca. 3 weeks vs untreated controls, 100% = plants dead, 0% = like control plants
From the text: (§1) Biologische Beispiele: • Die folgenden Abkürzungen werden für die in den folgenden Tabellen aufgeführten Kultur- und Schadpflanzen verwendet: ABUTH: Abutilon theophrasti ALOMY: Alopecurus myosuroides AMARE: Amaranthus retroflexus BRSNS: Brassica napus DIGSA: Digitaria sanguinalis ECHCG: Echinochloa crus-galli GLXMA: Glycine max KCHSC: Kochia scoparia LOLRI: Lolium rigidum MATIN: Matricaria inodora ORYZA: Oryza sativa PHPBU: Pharbitis purpurea POLCO: Polygonum convolvulus SETVI: Setaria viridis VERPE: Veronica persica VIOTR: Viola tricolor TRZAS: Triticum aestivum ZEAMX: Zea mays • A. Herbizide Wirkung im Nachauflauf
(§2) Samen von mono- bzw. dikotylen Unkrautpflanzen wurden in Kunststoff- oder Holzfasertöpfen in sandigem Lehmboden ausgelegt, mit Erde abgedeckt und im Gewächshaus unter kontrollierten Wachstumsbedingungen angezogen. 2 bis 3 Wochen nach der Aussaat wurden die Versuchspflanzen im Einblattstadium behandelt. Die in Form von benetzbaren Pulvern (WP) oder als Emulsionskonzentrate (EC) formulierten erfindungsgemäßen Verbindungen wurden dann als wässrige Suspension bzw. Emulsion unter Zusatz von 0,5% Additiv mit einer Wasseraufwandmenge von umgerechnet 600 l/ha auf die grünen Pflanzenteile gesprüht. Nach ca. 3 Wochen Standzeit der Versuchspflanzen im Gewächshaus, unter optimalen Wachstumsbedingungen, wurde die Wirkung der Präparate visuell im Vergleich zu unbehandelten Kontrollen bonitiert. Beispielsweise bedeutet 100% Wirkung = Pflanzen sind abgestorben, 0% Wirkung = wie Kontrollpflanzen.
(§3) In den nachstehenden Tabellen A1 bis A11 sind die Wirkungen ausgewählter Verbindungen der allgemeinen Formel (I) gemäß der Tabelle 1 auf verschiedene Schadpflanzen und einer Aufwandmenge entsprechend 20 g/ha und niedriger, die gemäß zuvor genannter Versuchsvorschrift erhalten wurden, dargestellt. Tabelle A1a: Nachauflaufwirkung bei 1,25 g/ha gegen ABUTH in %

Alopecurus myosuroides = assay: Post-emergence herbicidal action in greenhouse against ALOMY; conditions: 20 g/ha; post-emergence spray, 600 l/ha water; visual rating after ca. 3 weeks vs untreated controls; 100% = plants dead, 0% = like control plants
From the text: as §1, §2, §3

Amaranthus retroflexus = assay: Post-emergence herbicidal action in greenhouse against AMARE; conditions: post-emergence spray, 600 l/ha water, visual rating after ca. 3 weeks vs untreated controls, 100% = plants dead, 0% = like control plants
From the text: as §1, §2, §3

Digitaria sanguinalis = assay: Post-emergence herbicidal action in greenhouse against DIGSA; conditions: visual rating after ca. 3 weeks
From the text: as §1, §2, §3

Lolium rigidum = assay: Post-emergence herbicidal action in greenhouse against LOLRI; conditions: 20 g/ha; post-emergence spray, 600 l/ha water; visual rating after ca. 3 weeks vs untreated controls; 100% = plants dead, 0% = like control plants
From the text: as §1, §2, §3

Matricaria inodora = assay: Post-emergence herbicidal action in greenhouse against MATIN; conditions: visual rating after ca. 3 weeks
From the text: as §1, §2, §3

Pharbitis purpurea = assay: Post-emergence herbicidal action in greenhouse against PHBPU; conditions: visual rating after ca. 3 weeks
From the text: as §1, §2, §3

Polygonum convolvulus = assay: Post-emergence herbicidal action in greenhouse against POLCO; conditions: visual rating after ca. 3 weeks
From the text: as §1, §2, §3

Setaria viridis = assay: Post-emergence herbicidal action in greenhouse against SETVI; conditions: visual rating after ca. 3 weeks
From the text: as §1, §2, §3

Veronica persica = assay: Post-emergence herbicidal action in greenhouse against VERPE; conditions: visual rating after ca. 3 weeks
From the text: as §1, §2, §3

Viola tricolor = assay: Post-emergence herbicidal action in greenhouse against VIOTR; conditions: visual rating after ca. 3 weeks
From the text: as §1, §2, §3

Zea mays = assay: Post-emergence action on crop plants in greenhouse, ZEAMX; conditions: 1,25 g/ha, crop plant, post-emergence, visual rating after ca. 3 weeks; 100% = plants dead, 0% = like control plants
From the text: as §1
as §2, with “Kulturpflanzen” for “Unkrautpflanzen”
(§4) In den nachstehenden Tabellen B1 bis B4 sind die Wirkungen ausgewählter Verbindungen der allgemeinen Formel (I) gemäß der Tabelle 1 auf verschiedene Kulturpflanzen und einer Aufwandmenge entsprechend 20 g/ha und niedriger, die gemäß zuvor genannter Versuchsvorschrift erhalten wurden, dargestellt. Tabelle B1a: Nachauflaufwirkung bei 1,25 g/ha gegen ZEAMX in %

Triticum aestivum = assay: Post-emergence action on crop plants in greenhouse, TRZAS; conditions: crop plant, visual rating after ca. 3 weeks, 100% = plants dead, 0% = like control plants
From the text: as §1
as §2, with “Kulturpflanzen” for “Unkrautpflanzen”
as §4

Oryza sativa = assay: Post-emergence action on crop plants in greenhouse, ORYZA; conditions: crop plant, visual rating after ca. 3 weeks, 100% = plants dead, 0% = like control plants
From the text: as §1
as §2, with “Kulturpflanzen” for “Unkrautpflanzen”
as §4

Brassica napus = assay: Post-emergence action on crop plants in greenhouse, BRSNS; conditions: crop plant; 1,25 g/ha; post-emergence spray, 600 l/ha water; visual rating after ca. 3 weeks vs untreated controls; 100% = plants dead, 0% = like control plants
From the text: as §1
Samen von mono- bzw. dikotylen Kulturpflanzen wurden in Kunststoff- oder Holzfasertöpfen in sandigem Lehmboden ausgelegt, mit Erde abgedeckt und im Gewächshaus unter kontrollierten Wachstumsbedingungen angezogen. 2 bis 3 Wochen nach der Aussaat wurden die Versuchspflanzen im Einblattstadium behandelt. Die in Form von benetzbaren Pulvern (WP) oder als Emulsionskonzentrate (EC) formulierten erfindungsgemäßen Verbindungen wurden dann als wässrige Suspension bzw. Emulsion unter Zusatz von 0,5% Additiv mit einer Wasseraufwandmenge von umgerechnet 600 l/ha auf die grünen Pflanzenteile gesprüht. […]

SMILES | Nachauflaufwirkung gegen ABUTH (Abutilon theophrasti; 1,25 g/ha) [%] | Nachauflaufwirkung gegen ABUTH (Abutilon theophrasti; 5 g/ha) [%] | Nachauflaufwirkung gegen AMARE (Amaranthus retroflexus; 1,25 g/ha) [%] | Nachauflaufwirkung gegen AMARE (Amaranthus retroflexus; 5 g/ha) [%] | Nachauflaufwirkung gegen AMARE (Amaranthus retroflexus; 20 g/ha) [%] | Nachauflaufwirkung gegen DIGSA (Digitaria sanguinalis; 20 g/ha) [%] | Nachauflaufwirkung gegen MATIN (Matricaria inodora; 20 g/ha) [%] | Nachauflaufwirkung gegen PHBPU (Pharbitis purpurea; 5 g/ha) [%] | Nachauflaufwirkung gegen PHBPU (Pharbitis purpurea; 20 g/ha) [%] | Nachauflaufwirkung gegen POLCO (Polygonum convolvulus; 20 g/ha) [%] | Nachauflaufwirkung gegen SETVI (Setaria viridis; 1,25 g/ha) [%] | Nachauflaufwirkung gegen SETVI (Setaria viridis; 5 g/ha) [%] | Nachauflaufwirkung gegen SETVI (Setaria viridis; 20 g/ha) [%] | Nachauflaufwirkung gegen VERPE (Veronica persica; 20 g/ha) [%] | Nachauflaufwirkung gegen VIOTR (Viola tricolor; 5 g/ha) [%] | Nachauflaufwirkung gegen VIOTR (Viola tricolor; 20 g/ha) [%] | Nachauflaufwirkung gegen ZEAMX (Zea mays) [%] | Nachauflaufwirkung gegen TRZAS (Triticum aestivum; 1,25 g/ha) [%] | Nachauflaufwirkung gegen TRZAS (Triticum aestivum; 5 g/ha) [%] | Nachauflaufwirkung gegen ORYZA (Oryza sativa; 1,25 g/ha) [%] | further results
CC(C)(OC(=O)c1cc(-n2c(=O)cc(C(F)(F)F)n(N)c2=O)c(F)cc1Cl)C(=O)OCc1ccccn1 [I.1-286] | 90 | 100 | 100 | 100 | 100 | 100 | 100 | 100 | 100 | 100 | 100 | 100 | 100 | 100 | 100 | 100 | 20 | 0 | 10 | 0 | Nachauflaufwirkung gegen ABUTH (Abutilon theophrasti; 20 g/ha): 100%; Nachauflaufwirkung gegen ALOMY (Alopecurus myosuroides): 90%; Nachauflaufwirkung gegen DIGSA (Digitaria sanguinalis; 5 g/ha): 100%; Nachauflaufwirkung gegen LOLRI (Lolium rigidum): 90%; Nachauflaufwirkung gegen MATIN (Matricaria inodora; 5 g/ha): 90%; Nachauflaufwirkung gegen PHBPU (Pharbitis purpurea; 1,25 g/ha): 100%; Nachauflaufwirkung gegen POLCO (Polygonum convolvulus; 5 g/ha): 100%; Nachauflaufwirkung gegen VERPE (Veronica persica; 1,25 g/ha): 100%; Nachauflaufwirkung gegen VERPE (Veronica persica; 5 g/ha): 100%; Nachauflaufwirkung gegen VIOTR (Viola tricolor; 1,25 g/ha): 90%
CC(C)=NOC(=O)C(C)(C)OC(=O)c1cc(-n2c(=O)cc(C(F)(F)F)n(N)c2=O)c(F)cc1Cl [I.1-491] | 100 | 100 | 100 | 100 | 100 | 100 | 100 | 100 | 100 | 100 | 100 | 100 | 100 | 100 | 100 | 100 | 20 | 0 | 0 | 0 | Nachauflaufwirkung gegen ABUTH (Abutilon theophrasti; 20 g/ha): 100%; Nachauflaufwirkung gegen ALOMY (Alopecurus myosuroides): 100%; Nachauflaufwirkung gegen DIGSA (Digitaria sanguinalis; 5 g/ha): 100%; Nachauflaufwirkung gegen LOLRI (Lolium rigidum): 80%; Nachauflaufwirkung gegen MATIN (Matricaria inodora; 5 g/ha): 100%; Nachauflaufwirkung gegen PHBPU (Pharbitis purpurea; 1,25 g/ha): 100%; Nachauflaufwirkung gegen VERPE (Veronica persica; 5 g/ha): 100%; Nachauflaufwirkung gegen VIOTR (Viola tricolor; 1,25 g/ha): 80%
CC(C)(OC(=O)c1cc(-n2c(=O)cc(C(F)(F)F)n(N)c2=O)ccc1Cl)C(=O)O [I.2-481, 2-({5-[3-Amino-2,6-dioxo-4-(trifluormethyl)-3,6-dihydropyrimidin-1(2H)-yl]-2-chlorbenzoyl}oxy)-2-methylpropansäure] | – | – | 90 | 100 | 100 | 100 | 100 | 100 | 100 | 100 | 80 | 90 | 100 | 100 | 80 | 100 | 20 | 0 | 0 | 0 | Nachauflaufwirkung gegen POLCO (Polygonum convolvulus; 5 g/ha): 100%; Nachauflaufwirkung gegen TRZAS (Triticum aestivum; 20 g/ha): 20%; Nachauflaufwirkung gegen ORYZA (Oryza sativa; 5 g/ha): 0%; Nachauflaufwirkung gegen ORYZA (Oryza sativa; 20 g/ha): 0%; Nachauflaufwirkung gegen BRSNS (Brassica napus): 0%
